According to patent US10023602B2, “Hamamelitannin analogues and uses thereof” (Universiteit Gent, priority 2014, dated 2018):
pEC50: −log10 of the molar value.

How the values were obtained:
[1] = test system: methicillin resistant S. aureus Mu50 strain (S. aureus ATCC700699) biofilm; experiment: Biofilm susceptibility to vancomycin, pre-treatment regimen (biofilm formed in presence of compound, then vancomycin); format: cell-based; conditions: for Pretreat (100 μM): percentage Colony Forming Units (CFU's) per biofilm: compound 100 μM during biofilm formation; for Pretreat (100 μM): percentage Colony Forming Units (CFU's) per biofilm / Pretreat. (25 μM): percentage Colony Forming Units (CFU's) per biofilm: then VAN 20 μg/ml, compared to the untreated (negative) control; for pEC50: concentration needed to get 50% killing compared to antibiotic alone (VAN 20 μg/ml) and complete killing, read-out: Pretreat. (EC50); for Pretreat. (25 μM): percentage Colony Forming Units (CFU's) per biofilm: compound 25 μM during biofilm formation
Outline: (§1)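 Mu50 biofilms from 10^8 CFU/ml inoculum (4 h adhesion, then 20 h, 37 °C). Pre-treatment: compound (0.1-250 μM) present during biofilm formation, then vancomycin 20 μg/ml alone 24 h; combination: mature biofilm given vancomycin 20 μg/ml plus compound 24 h. Survivors counted by plating versus vancomycin alone.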

[2] = test system: methicillin resistant S. aureus Mu50 strain (S. aureus ATCC700699) biofilm; experiment: Biofilm susceptibility to vancomycin, combination treatment regimen (mature biofilm treated with compound plus vancomycin); format: cell-based; conditions: for Combin. (100 μM): percentage Colony Forming Units (CFU's) per biofilm: compound 100 μM together with VAN 20 μg/ml on mature biofilm; for Combin. (100 μM): percentage Colony Forming Units (CFU's) per biofilm / Combin. (25 μM): percentage Colony Forming Units (CFU's) per biofilm: compared to the untreated (negative) control; for pEC50: concentration needed to get 50% killing compared to antibiotic alone (VAN 20 μg/ml) and complete killing, read-out: Combin. (EC50); for Combin. (25 μM): percentage Colony Forming Units (CFU's) per biofilm: compound 25 μM together with VAN 20 μg/ml on mature biofilm
Outline: as §1

SMILES | Pretreat (100 μM): percentage Colony Forming Units (CFU's) per biofilm [1] [percentage] | Combin. (100 μM): percentage Colony Forming Units (CFU's) per biofilm [2] [percentage] | pEC50 [1] | pEC50 [2] | Pretreat. (25 μM): percentage Colony Forming Units (CFU's) per biofilm [1] [percentage] | Combin. (25 μM): percentage Colony Forming Units (CFU's) per biofilm [2] [percentage]
O=C(NC[C@]1(O)CO[C@H](CNC(=S)Nc2ccccc2)[C@H]1O)c1ccccc1 [compound 224, N-(((3S,4R,5R)-3,4-dihydroxy-5-((3-phenylthioureido)methyl)tetrahydrofuran-3-yl)methyl)benzamide] | 20.22 | 27.33 |  |  |  | 
CC(=O)NC[C@H]1OC[C@@](O)(CNC(=O)c2ccccc2)[C@@H]1O [compound 225, N-(((3S,4R,5R)-5-(acetamidomethyl)-3,4-dihydroxytetrahydrofuran-3-yl)methyl)benzamide] | 23.96 | 27.38 |  |  |  | 
CC(C)(C)C(=O)NC[C@H]1OC[C@@](O)(CNC(=O)c2ccccc2)[C@@H]1O [compound 226, N-(((3S,4R,5R)-3,4-dihydroxy-5-(pivalamidomethyl)tetrahydrofuran-3-yl)methyl)benzamide] | 50.74 | 28.64 |  |  |  | 
O=C(NC[C@]1(O)CO[C@H](CN2C(=O)c3ccc(Cl)cc3C2=O)[C@H]1O)c1ccccc1 [compound 227, N-(((3S,4R,5R)-5-((5-chloro-1,3-dioxoisoindolin-2-yl)methyl)-3,4-dihydroxytetrahydrofuran-3-yl)methyl)benzamide] | 77.57 | 61.81 |  |  |  | 
O=C(NC[C@]1(O)CO[C@H](CNCc2ccccc2)[C@H]1O)c1ccccc1 [compound 228, N-(((3S,4R,5R)-5-((benzylamino)methyl)-3,4-dihydroxytetrahydrofuran-3-yl)methyl)benzamide] | 18.68 | 22.13 | 4.39 | 4.34 |  | 
CN(C[C@]1(O)CO[C@H](CNC(=O)c2ccccc2)[C@H]1O)C(=O)c1ccccc1 [compound 229, N-(((3S,4R,5R)-5-(benzamidomethyl)-3,4-dihydroxytetrahydrofuran-3-yl)methyl)-N-methylbenzamide] | 7.17 | 11.15 | 5.24 | 5.05 |  | 
O=C(NC[C@]1(O)CO[C@H](CN2Cc3ccccc3C2=O)[C@H]1O)c1ccccc1 [compound 230, N-(((3S,4R,5R)-3,4-dihydroxy-5-((1-oxoisoindolin-2-yl)methyl)tetrahydrofuran-3-yl)methyl)benzamide] | 24.90 | 30.15 | 4.24 | 4.22 |  | 
O=C(NC[C@H]1OC[C@@](O)(CN2C(=O)c3ccccc3C2=O)[C@@H]1O)c1ccccc1Cl [compound 231, 2-chloro-N-(((2R,3R,4S)-4-((1,3-dioxoisoindolin-2-yl)methyl)-3,4-dihydroxytetrahydrofuran-2-yl)methyl)benzamide] | 8.18 | 28.85 | 5.58 | 4.41 |  | 
Cc1ccc(C(=O)NC[C@]2(O)CO[C@H](CNC(=O)c3ccccc3Cl)[C@H]2O)cc1 [compound 232, 2-chloro-N-(((2R,3R,4S)-3,4-dihydroxy-4-((4-methylbenzamido)methyl)tetrahydrofuran-2-yl)methyl)benzamide] |  |  | 4.10 | 4.38 | 52.41 | 42.16
O=C(NC[C@]1(O)CO[C@H](CNC(=O)c2ccccc2Cl)[C@H]1O)c1ccc(F)cc1 [compound 233, 2-chloro-N-(((2R,3R,4S)-4-((4-fluorobenzamido)methyl)-3,4-dihydroxytetrahydrofuran-2-yl)methyl)benzamide] |  |  |  |  | 88.61 | 91.63
O=C(NC[C@]1(O)CO[C@H](CNC(=O)c2ccccc2Cl)[C@H]1O)c1ccc(Cl)cc1 [compound 234, 2-chloro-N-(((2R,3R,4S)-4-((4-chlorobenzamido)methyl)-3,4-dihydroxytetrahydrofuran-2-yl)methyl)benzamide] |  |  |  |  | 61.12 | 56.96
COc1ccc(C(=O)NC[C@]2(O)CO[C@H](CNC(=O)c3ccccc3Cl)[C@H]2O)cc1 [compound 235, 2-chloro-N-(((2R,3R,4S)-3,4-dihydroxy-4-((4-methoxybenzamido)methyl)tetrahydrofuran-2-yl)methyl)benzamide] |  |  |  |  | 66.10 | 57.35
N#Cc1ccc(C(=O)NC[C@]2(O)CO[C@H](CNC(=O)c3ccccc3Cl)[C@H]2O)cc1 [compound 236, 2-chloro-N-(((2R,3R,4S)-4-((4-cyanobenzamido)methyl)-3,4-dihydroxytetrahydrofuran-2-yl)methyl)benzamide] |  |  |  |  | 73.00 | 70.73
CN(C)c1ccc(C(=O)NC[C@]2(O)CO[C@H](CNC(=O)c3ccccc3Cl)[C@H]2O)cc1 [compound 237, 2-chloro-N-(((2R,3R,4S)-4-((4-(dimethylamino)benzamido)methyl)-3,4-dihydroxytetrahydrofuran-2-yl)methyl)benzamide] |  |  | 4.32 | 4.16 | 58.79 | 47.56
O=C(NC[C@]1(O)CO[C@H](CNC(=O)c2ccccc2Cl)[C@H]1O)c1ccc(C(F)(F)F)cc1 [compound 238, 2-chloro-N-(((2R,3R,4S)-3,4-dihydroxy-4-((4-(trifluoromethyl)benzamido)methyl)tetrahydrofuran-2-yl)methyl)benzamide] |  |  | 4.07 | 4.12 | 45.03 | 68.51
O=C(NC[C@]1(O)CO[C@H](CNC(=O)c2ccccc2Cl)[C@H]1O)c1ccncc1 [compound 239, N-(((3S,4R,5R)-5-((2-chlorobenzamido)methyl)-3,4-dihydroxytetrahydrofuran-3-yl)methyl)isonicotinamide] |  |  |  |  | 49.98 | 58.76
O=C(NC[C@]1(O)CO[C@H](CNC(=O)c2ccccc2Cl)[C@H]1O)c1cccc(F)c1 [compound 240, 2-chloro-N-(((2R,3R,4S)-4-((3-fluorobenzamido)methyl)-3,4-dihydroxytetrahydrofuran-2-yl)methyl)benzamide] |  |  |  |  | 118.37 | 91.32
O=C(NC[C@]1(O)CO[C@H](CNC(=O)c2ccccc2Cl)[C@H]1O)c1cccc(Cl)c1 [compound 241, 2-chloro-N-(((2R,3R,4S)-4-((3-chlorobenzamido)methyl)-3,4-dihydroxytetrahydrofuran-2-yl)methyl)benzamide] |  |  |  |  | 98.17 | 81.35
O=C(NC[C@]1(O)CO[C@H](CNC(=O)c2ccccc2Cl)[C@H]1O)c1cccc(C(F)(F)F)c1 [compound 242, 2-chloro-N-(((2R,3R,4S)-3,4-dihydroxy-4-((3-(trifluoromethyl)benzamido)methyl)tetrahydrofuran-2-yl)methyl)benzamide] |  |  |  |  | 117.15 | 87.14
O=C(NC[C@]1(O)CO[C@H](CNC(=O)c2ccccc2Cl)[C@H]1O)c1cccnc1 [compound 243, N-(((3S,4R,5R)-5-((2-chlorobenzamido)methyl)-3,4-dihydroxytetrahydrofuran-3-yl)methyl)nicotinamide] |  |  |  |  | 85.00 | 51.83
Cc1ccccc1C(=O)NC[C@]1(O)CO[C@H](CNC(=O)c2ccccc2Cl)[C@H]1O [compound 244, 2-chloro-N-(((2R,3R,4S)-3,4-dihydroxy-4-((2-methylbenzamido)methyl)tetrahydrofuran-2-yl)methyl)benzamide] |  |  | 4.25 | 3.91 | 41.07 | 54.77
O=C(NC[C@]1(O)CO[C@H](CNC(=O)c2ccccc2Cl)[C@H]1O)c1ccccc1F [compound 245, 2-chloro-N-(((2R,3R,4S)-4-((2-fluorobenzamido)methyl)-3,4-dihydroxytetrahydrofuran-2-yl)methyl)benzamide] |  |  | 4.31 | 4.21 | 61.75 | 44.14
